This is an account of results in patent US12714671B2, “Cell membrane lipid-extracted nanoparticles (CLENs) for selective targeting, image analysis and cancer therapy” (priority 2018, dated 2026).

Structures can show the parent of a compound that is named as a salt.

For this data set, the system named is 4T1 cells. As to the kind of experiment: Cytotoxicity of doxorubicin-loaded CLENs (SRB assay). The class given is cell-based, murine. The settings on record: 24 h, free doxorubicin 0.5 μmol/ml. How it is done:
4T1 cells were seeded at 1×10^4 per ml in a 48-well plate. Cells were exposed to different concentrations of doxorubicin-loaded CLENs (4T1, BT-20, and SKBR-3). SRB assay was used to determine percent of cell viability 24 hours following exposure to doxorubicin (5 mol %). Error bars indicate mean±S.D. (n=6).
Sulforhodamine B (SRB) assay was used to determine percent viability of control based on the amount of basic proteins in viable cells following exposure to different CLENs. Cells were seeded at 1×10^4 per ml in a 48-well plate. Columns of cells in the 48 well plate were exposed to either doxil, free doxorubicin, SKBR-3, BT-20 or 4T1 CLENs-loaded with doxorubicin (5 mol %). […] Finally, 1 mL of 1×PBS was added to each well and the plate was analyzed using a fluorescence microplate reader. The fluorescence intensity was measured at excitation wavelength of 540/20 nm and emission wavelength of 590/20 nm using FLX 800 Fluorescence Microplate Reader (Bio-tech Instruments, Winooski, VT).
Enhanced cellular uptake and selective drug targeting are important features of a drug delivery system, but how each translates overall to therapy is critical to success. For this reason, cytotoxicity of three different doxorubicin-loaded CLENs was evaluated for 4T1, BT-20 and SKBR-3 variety, doxil, and free doxorubicin (0.5 μmol/ml) against the growth of 4T1 cells in vitro. […]
On the technique in general: In SRB staining, fixed cells bind dye roughly in proportion to their protein.

In the case of `COc1cccc2c1C(=O)c1c(O)c3c(c(O)c1C2=O)C[C@@](O)(C(=O)CO)C[C@@H]3O[C@H]1C[C@H](N)[C@H](O)[C@H](C)O1` [free doxorubicin, Doxorubicin hydrochloride], the “cytotoxicity against growth of 4T1 cells (comparison in words)” value was “No significant difference in cytotoxicity”.
